The values that follow come from patent publication US10988477B2 (Merck Patent GmbH, priority 2018, dated 2021).

Assay [1] addresses intracellular GCN2 (phosphorylation of the GCN2 substrate eIF2α) (Homo sapiens, UniProt Q9P2K8). Put plainly: GCN2 cellular inhibition assay (AlphaScreen SureFire P-eIF2α Ser51, borrelidin-treated U2OS cells). The assay is classed as cell-based. Particulars: biomarker assay, phosphorylated eIF2α Ser51 in borrelidin-treated U2OS cells. An outline of the steps: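 Borrelidin at 10 μM is added to U2OS cells immediately after compound (4-fold dilution series, 40 μM top final) for 1 h at 37 °C. Phosphorylated eIF2α Ser51 in lysates is quantified by AlphaScreen and expressed as percent inhibition against borrelidin-stimulated controls.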
A general note: Bead proximity is the source of the signal in Alpha formats.

Another assay addresses GCN2 kinase (Homo sapiens, UniProt Q9P2K8). Nature of the assay: GCN2 enzyme inhibition assay (Transcreener ADP2 fluorescence polarization). The assay is classed as biochemical. The note with it: 280 μM ATP. An outline of the steps: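 Inhibition of 4 nM GCN2 was measured with compound up to 8 μM final, ATP 280 μM and (RS)7 peptide 200 μM over a 1 h, 25 °C reaction. ADP FP readout; IC50 and Ki(app) calculated from percent inhibition.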
On the technique in general: In fluorescence polarisation assays a small probe gives low polarisation when free and higher when bound to something large.

[2] abbreviates: compounds of Formula II, 4 nM GCN2 kinase.
Setting [3] is: Enzyme activity for compounds of Formula IV, Ki(app), 25° C.

Broadly, the IC50 is the midpoint of a concentration-inhibition curve. A higher IC50 goes with a need for much substance.

SMILES strings stand for the structures.

Chain of GCN2 kinase (Q9P2K8 whole entry): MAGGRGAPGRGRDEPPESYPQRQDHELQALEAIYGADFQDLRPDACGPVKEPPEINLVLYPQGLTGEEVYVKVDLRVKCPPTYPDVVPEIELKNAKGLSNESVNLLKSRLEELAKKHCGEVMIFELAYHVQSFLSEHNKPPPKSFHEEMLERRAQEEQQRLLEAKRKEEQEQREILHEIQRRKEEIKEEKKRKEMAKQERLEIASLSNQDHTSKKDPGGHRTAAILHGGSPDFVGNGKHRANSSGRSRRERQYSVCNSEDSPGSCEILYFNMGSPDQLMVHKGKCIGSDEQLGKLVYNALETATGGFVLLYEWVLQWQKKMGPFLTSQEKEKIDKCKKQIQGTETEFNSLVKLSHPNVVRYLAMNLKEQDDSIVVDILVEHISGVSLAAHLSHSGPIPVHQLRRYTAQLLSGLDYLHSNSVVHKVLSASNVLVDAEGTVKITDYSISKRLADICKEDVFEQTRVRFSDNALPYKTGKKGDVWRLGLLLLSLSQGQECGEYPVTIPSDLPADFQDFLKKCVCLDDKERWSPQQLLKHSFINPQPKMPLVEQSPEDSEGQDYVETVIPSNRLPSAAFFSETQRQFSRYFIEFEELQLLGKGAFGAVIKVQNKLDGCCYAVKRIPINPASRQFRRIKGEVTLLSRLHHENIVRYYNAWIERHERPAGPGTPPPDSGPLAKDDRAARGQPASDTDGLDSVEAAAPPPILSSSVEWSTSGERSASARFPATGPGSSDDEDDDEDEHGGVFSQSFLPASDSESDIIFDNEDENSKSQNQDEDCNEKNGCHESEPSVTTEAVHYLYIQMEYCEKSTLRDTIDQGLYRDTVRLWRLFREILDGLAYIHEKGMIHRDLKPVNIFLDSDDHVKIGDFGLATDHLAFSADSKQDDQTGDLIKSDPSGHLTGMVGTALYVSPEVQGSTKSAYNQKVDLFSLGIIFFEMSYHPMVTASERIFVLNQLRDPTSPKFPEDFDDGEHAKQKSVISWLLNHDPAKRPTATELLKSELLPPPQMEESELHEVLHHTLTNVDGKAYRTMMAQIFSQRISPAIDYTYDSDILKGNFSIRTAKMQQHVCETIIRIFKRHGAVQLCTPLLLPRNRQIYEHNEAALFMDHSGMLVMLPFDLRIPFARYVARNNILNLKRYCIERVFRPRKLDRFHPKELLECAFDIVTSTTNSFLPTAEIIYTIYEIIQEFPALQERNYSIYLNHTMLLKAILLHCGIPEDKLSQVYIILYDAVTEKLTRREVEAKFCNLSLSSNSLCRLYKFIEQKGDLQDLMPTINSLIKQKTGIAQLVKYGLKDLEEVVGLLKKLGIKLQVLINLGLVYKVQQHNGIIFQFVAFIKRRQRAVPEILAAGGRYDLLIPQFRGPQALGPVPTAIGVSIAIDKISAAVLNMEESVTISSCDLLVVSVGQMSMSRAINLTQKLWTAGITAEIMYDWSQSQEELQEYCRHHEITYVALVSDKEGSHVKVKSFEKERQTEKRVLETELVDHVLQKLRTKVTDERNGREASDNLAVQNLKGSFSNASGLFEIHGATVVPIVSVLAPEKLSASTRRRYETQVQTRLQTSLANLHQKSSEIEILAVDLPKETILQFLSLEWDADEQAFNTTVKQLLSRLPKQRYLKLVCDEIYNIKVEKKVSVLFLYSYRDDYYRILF
Chain of intracellular GCN2 (phosphorylation of the GCN2 substrate eIF2α) (Q9P2K8 whole entry): as above

Regarding `CS(=O)(=O)NC[C@H]1CN(c2cc(-c3cnc4ccc(C(F)F)nn34)ncn2)C[C@H](C(F)(F)F)O1` [II-330, N-(((2R,6R)-4-(6-(6-(Difluoromethyl)imidazo[1,2-b]pyridazin-3-yl)pyrimidin-4-yl)-6-(trifluoromethyl)morpholin-2-yl)methyl)methanesulfonamide], the 50% inhibitory concentration (IC50) in assay [1] (compounds of Formula II) was in the range of 500 to 5000 nM. Also, the Ki on GCN2 kinase (setting [2]) lay in the range of 10 to 1000 nM.
In the same order, the values of `CS(=O)(=O)NCC1CCCN(c2cncc(-c3cnc4ccc(C(F)F)nn34)c2)C1` (stereo not drawn) [II-87, N-((1-(5-(6-(Difluoromethyl)imidazo[1,2-b]pyridazin-3-yl)pyridin-3-yl)piperidin-3-yl)methyl)methanesulfonamide] are 500 to 5000 nM and less than 10 nM.
`O=C1NCCC12CCN(c1ccnc(-c3cnc4cnc(C(F)F)cn34)n1)C2` (stereo not drawn) [IV-69, 7-(2-(6-(Difluoromethyl)imidazo[1,2-a]pyrazin-3-yl)pyrimidin-4-yl)-2,7-di azaspiro[4.4]nonan-1-one] came in with a 50% inhibitory concentration (IC50) in assay [1] (compounds of Formula IV) of more than 5000 nM. On GCN2 kinase (setting [3]), the Ki fell in the range of 100 to 1000 nM.
In the same order, the values of `CN1CCN(c2ccnc(-c3cnc4cnc(C(F)F)cn34)n2)CC1C(N)=O` (stereo not drawn) [IV-89, 4-(2-(6-(Difluoromethyl)imidazo[1,2-a]pyrazin-3-yl)pyrimidin-4-yl)-1-methylpiperazine-2-carboxamide] are more than 5000 nM and 100 to 1000 nM.
In the same order, the values of `CS(=O)(=O)NCCC1CCCN(c2ccnc(-c3cnc4cnc(C(F)F)cn34)n2)C1` (stereo not drawn) [IV-43, N-(2-(1-(2-(6-(Difluoromethyl)imidazo[1,2-a]pyrazin-3-yl)pyrimidin-4-yl)piperidin-3-yl)ethyl)methanesulfonamide] are more than 5000 nM and 100 to 1000 nM.
In the same order, the values of `NCCC1CCCN(c2ccnc(-c3cnc4cnc(C(F)(F)F)cn34)n2)C1` (stereo not drawn) [IV-488] are more than 5000 nM and 100 to 1000 nM.
Consider `CS(C)(=O)=NC1CCCN(c2ccnc(-c3cnc4cnc(C(F)F)cn34)n2)C1` (stereo not drawn) [IV-141, ((1-(2-(6-(Difluoromethyl)imidazo[1,2-a]pyrazin-3-yl)pyrimidin-4-yl)piperidin-3-yl)imino)dimethyl-λ^6-sulfanone], for which the half-inhibitory concentration (IC50) in assay [1] (compounds of Formula IV) was more than 5000 nM. On GCN2 kinase (setting [3]), this molecule showed a Ki of 100 to 1000 nM.
As to `CC1CN(c2ccnc(-c3cnc4cnc(Cl)cn34)n2)CC(c2cn[nH]c2)O1` (single isomer, unassigned) [IV-217, 4-(2-(6-Chloroimidazo[1,2-a]pyrazin-3-yl)pyrimidin-4-yl)-2-methyl-6-(1H-pyrazol-4-yl)morpholine], in assay [1] (compounds of Formula IV), the half-inhibitory concentration (IC50) was less than 500 nM. This molecule also displayed a Ki at GCN2 kinase (setting [3]) of less than 10 nM.
`CC1CN(c2ccnc(-c3cnc4ccc(C(F)F)nn34)c2)CC(CNS(C)(=O)=O)O1` (stereo not drawn) [II-94, N-((4-(2-(6-(Difluoromethyl)imidazo[1,2-b]pyridazin-3-yl)pyridin-4-yl)-6-methylmorpholin-2-yl)methyl)methanesulfonamide]: in assay [1] (compounds of Formula II), the IC50 was less than 500 nM. Moreover, the Ki at GCN2 kinase (setting [2]) was less than 10 nM.
Molecule `CC1CN(c2ccnc(-c3cnc4cnc(C(F)(F)F)cn34)n2)CC(c2c[nH]cn2)O1` (single isomer, unassigned) [IV-405, 2-(1H-Imidazol-4-yl)-6-methyl-4-(2-(6-(trifluoromethyl)imidazo[1,2-a]pyrazin-3-yl)pyrimidin-4-yl)morpholine] returned an IC50 in assay [1] (compounds of Formula IV) of less than 500 nM. Moreover, at GCN2 kinase (setting [3]), the Ki was less than 10 nM.
In the same order, the values of `O=C1CN(c2ccnc(-c3cnc4cnc(C(F)(F)F)cn34)n2)CC(c2cn[nH]c2)N1` (stereo not drawn) [IV-410, 6-(1H-Pyrazol-4-yl)-4-(2-(6-(trifluoromethyl)imidazo[1,2-a]pyrazin-3-yl)pyrimidin-4-yl)piperazin-2-one] are more than 5000 nM and 10 to 100 nM.
For the molecule `CS(=O)(=O)C1CCN(c2cc(-c3cnc4ccc(C(F)F)nn34)ncn2)C1` (stereo not drawn) [II-395, 6-(Difluoromethyl)-3-(6-(3-(methylsulfonyl)pyrrolidin-1-yl)pyrimidin-4-yl)imidazo[1,2-b]pyridazine], the IC50 in assay [1] (compounds of Formula II) is more than 5000 nM. Further, at GCN2 kinase (setting [2]), the Ki lay within 10 to 1000 nM.
